In patent US9458172B2, “Pyridinyl and pyrimidinyl sulfoxide and sulfone derivatives” (priority 2012, dated 2016):
Like-named read-outs stand apart in the source and are kept apart here.

Tests used:
NAMPT = NAMPT (Homo sapiens (Human), UniProt P43490); test: Biochemical Inhibition Assay (NAMPT enzymatic reaction, NMN quantified by mass spectrometry); conditions: 33 nM recombinant His-tagged NAMPT, 1 μM NAM, 30 min at rt
Protocol: Assay 1: Biochemical Inhibition Assay
NAMPT protein purification. Recombinant His-tagged NAMPT was produced in E. coli cells, purified over a Ni column, and further purified over a size-exclusion column by XTAL Biostructures.
The NAMPT Enzymatic Reaction. The NAMPT enzymatic reactions were carried out in Buffer A (50 mM Hepes pH 7.5, 50 mM NaCl, 5 mM MgCl2, and 1 mM THP) in 96-well V-bottom plates. The compound titrations were performed in a separate dilution plate by serially diluting the compounds in DMSO to make a 100× stock. […] The compound and enzyme mixture was incubated for 15 min at rt, then 10 μL of 10× substrate and co-factors in Buffer A were added to the test well to make a final concentration of 1 μM NAM, […] 5-Phospho-D-ribose 1-diphosphate (PRPP), and 2.5 mM Adenosine 5′-triphosphate (ATP). The reaction was allowed to proceed for 30 min at rt, then was quenched with the addition of 11 μL of a solution of formic acid and L-Cystathionine to make a final concentration of 1% formic acid and 10 μM L-Cystathionine. Background and signal strength was determined by addition (or non-addition) of a serial dilution of NMN to a pre-quenched enzyme and cofactor mix.
Quantification of NMN. A mass spectrometry-based assay was used to measure the NAMPT reaction product, β-nicotinamide mononucleotide (NMN), and the internal control (L-Cystathionine). NMN and L-Cystathionine were detected using the services of Biocius Lifesciences with the RapidFire system. In short, the NMN and L-Cystathionine were bound to a graphitic carbon cartridge in 0.1% formic acid, eluted in 30% acetonitrile buffer, and injected into a Sciex 4000 mass spectrometer. The components of the sample were ionized with electrospray ionization and the positive ions were detected. […] The fragments are quantified and the analyzed by the following method.
Determination of IC50 Values. First, the NMN signal was normalized to the L-Cystathionine signal by dividing the NMN signal by the L-Cystathionine signal for each well. The signal from the background wells were averaged and subtracted from the test plates.

A2780 cells = test: In-Vitro Cell Proliferation Assay (SRB)
[1] = Homo sapiens, A2780, 72 h, read-out: Cell Proliferation (IC50)
[2] = Homo sapiens, A2780, 72 h, read-out: Cell Proliferation (IC50), A2780 cells, 72 h, sulforhodamine B
[3] = read-out: Cell Proliferation (IC50), A2780 cells, 72 h, sulforhodamine B

Sequence of NAMPT (P43490 whole entry): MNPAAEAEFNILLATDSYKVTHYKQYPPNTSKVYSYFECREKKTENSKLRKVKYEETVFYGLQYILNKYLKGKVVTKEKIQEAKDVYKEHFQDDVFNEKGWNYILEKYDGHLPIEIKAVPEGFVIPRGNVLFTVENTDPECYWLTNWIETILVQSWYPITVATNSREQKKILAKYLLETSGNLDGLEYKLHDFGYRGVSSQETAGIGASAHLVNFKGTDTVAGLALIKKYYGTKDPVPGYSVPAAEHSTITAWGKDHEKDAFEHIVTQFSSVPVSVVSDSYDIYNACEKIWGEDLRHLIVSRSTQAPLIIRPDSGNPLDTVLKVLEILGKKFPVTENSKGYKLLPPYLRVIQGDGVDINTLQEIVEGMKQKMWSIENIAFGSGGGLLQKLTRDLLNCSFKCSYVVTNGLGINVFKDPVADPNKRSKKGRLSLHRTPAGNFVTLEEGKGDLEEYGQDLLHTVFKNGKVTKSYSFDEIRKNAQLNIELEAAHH

Row | Compound | IC50 (NAMPT) [nM] | IC50 (A2780 cells; [1]) [nM] | IC50 (A2780 cells; [2]) [nM] | IC50 (A2780 cells; [3]) [nM]
1 | O=C(NCc1ccc([S+]([O-])c2cccc(OC(F)(F)F)c2)cn1)c1cc2ccncc2o1 (racemic) [Example 90, Furo[2,3-c]pyridine-2-carboxylic acid [5-(3-trifluoromethoxy-benzenesulfinyl)-pyridin-2-ylmethyl]-amide (racemic)] | 16.2 | 25.5 | – | –
2 | O=C(NCc1ccc([S+]([O-])c2cccc(OC(F)(F)F)c2)cn1)c1ccc2nccn2c1 (racemic) [Example 101, Imidazo[1,2-a]pyridine-6-carboxylic acid [5-(3-trifluoromethoxy-benzenesulfinyl)-pyridin-2-ylmethyl]-amide (racemic)] | 31.5 | – | 40.2 | –
3 | CC(C)CN1CCC([S+]([O-])c2ccc(CNC(=O)c3cc4ccncc4o3)nc2)CC1 (racemic) [Example 102, Furo[2,3-c]pyridine-2-carboxylic acid [5-(1-isobutyl-piperidine-4-sulfinyl)-pyridin-2-ylmethyl]-amide (racemic)] | 69.3 | 25.6 | – | –
4 | O=C(NCc1ccc(S(=O)(=O)c2cc(F)cc(F)c2)cn1)c1cnc2nccn2c1 [Example 2, Imidazo[1,2-a]pyrimidine-6-carboxylic acid [5-(3,5-difluoro-benzenesulfonyl)-pyridin-2-ylmethyl]-amide] | 6.5 | 52.6 | – | –
5 | O=C(NCc1ccc(S(=O)(=O)c2cc(F)cc(F)c2)cn1)c1ccc2nccn2c1 [Example 4, Imidazo[1,2-a]pyridine-6-carboxylic acid [5-(3,5-difluoro-benzenesulfonyl)-pyridin-2-ylmethyl]-amide] | 7.1 | 9.2 | – | –
6 | O=C(NCc1ncc(S(=O)(=O)c2ccccc2)cn1)c1cc2cnccc2[nH]1 [Example 7, 1H-Pyrrolo[3,2-c]pyridine-2-carboxylic acid (5-benzenesulfonyl-pyrimidin-2-ylmethyl)-amide] | 150 | 131 | – | –
7 | O=C(NCc1ncc(S(=O)(=O)c2ccccc2)cn1)c1ccc2nccn2c1 [Example 8, Imidazo[1,2-a]pyridine-6-carboxylic acid (5-benzenesulfonyl-pyrimidin-2-ylmethyl)-amide] | 352 | – | 459 | –
8 | O=C(NCc1ccc(S(=O)(=O)c2cccc(C(F)(F)F)c2)cn1)c1ccc2nccn2c1 [Example 10, Imidazo[1,2-a]pyridine-6-carboxylic acid [5-(3-trifluoromethyl-benzenesulfonyl)-pyridin-2-ylmethyl]-amide] | 12.7 | – | 8.3 | –
9 | O=C(NCc1ccc(S(=O)(=O)c2cccc(OC(F)(F)F)c2)cn1)c1ccc2nccn2c1 [Example 13, Imidazo[1,2-a]pyridine-6-carboxylic acid [5-(3-trifluoromethoxy-benzenesulfonyl)-pyridin-2-ylmethyl]-amide] | 8.5 | 13.6 | – | –
10 | O=C(NCc1ccc(S(=O)(=O)c2cccc(C(F)(F)F)c2)cn1)c1cc2cnccc2[nH]1 [Example 17, 1H-Pyrrolo[3,2-c]pyridine-2-carboxylic acid [5-(3-trifluoromethyl-benzenesulfonyl)-pyridin-2-ylmethyl]-amide] | 19.1 | 9.1 | – | –
11 | O=C(NCc1ccc(S(=O)(=O)c2cccc(C(F)(F)F)c2)cn1)c1cnc2nccn2c1 [Example 18, Imidazo[1,2-a]pyrimidine-6-carboxylic acid (5-(3-trifluoromethyl-benzenesulfonyl)-pyridin-2-ylmethyl]-amide] | 4.7 | 11.7 | – | –
12 | O=C(NCc1ccc(S(=O)(=O)c2cccc(OC(F)(F)F)c2)cn1)c1cc2ccncc2o1 [Example 23, Furo[2,3-c]pyridine-2-carboxylic acid [5-(3-trifluoromethoxy-benzenesulfonyl)-pyridin-2-ylmethyl)-amide] | 6.1 | 10.8 | – | –
13 | O=C(NCc1ccc(S(=O)(=O)C2CCNCC2)cn1)c1cc2ccncc2o1 [Example 26, Furo[2,3-c]pyridine-2-carboxylic acid [5-(piperidine-4-sulfonyl)-pyridin-2-ylmethyl]-amide] | 204 | 2000 | – | –
14 | O=C(NCc1ccc(S(=O)(=O)c2ccc(N3CCOCC3)cc2)cn1)c1cnc2[nH]ncc2c1 [Example 31, 1H-Pyrazolo[3,4-b]pyridine-5-carboxylic acid [5-(4-morpholin-4-yl-benzenesulfonyl)-pyridin-2-ylmethyl]-amide] | 19.3 | 7.3 | – | –
15 | COc1cccc(S(=O)(=O)c2ccc(CNC(=O)c3cc4ccncc4o3)nc2)c1 [Example 32] | 6.1 | 9.1 | – | –
16 | O=C(NCc1ccc(S(=O)(=O)c2ccc(N3CCOCC3)nc2)cn1)c1ccc2nccn2c1 [Example 35, Imidazo[1,2-a]pyridine-6-carboxylic acid [5-(6-morpholin-4-yl-pyridine-3-sulfonyl)-pyridin-2-ylmethyl]-amide] | 8.6 | 2 | – | –

Other lines, results leading:

Row | IC50 (NAMPT) [nM] | IC50 (A2780 cells; [1]) [nM] | IC50 (A2780 cells; [2]) [nM] | IC50 (A2780 cells; [3]) [nM] | Compound
17 | 635 | – | – | 2000 | O=C(NCc1ccc([S+]([O-])c2cc(F)cc(F)c2)cn1)N1Cc2ccncc2C1 (single isomer, unassigned; enantiomer 1) [Example 159, N-[[5-(3,5-difluorophenyl)sulfinyl-2-pyridyl]methyl]-1,3-dihydropyrrolo[3,4-c]pyridine-2-carboxamide (enantiomer 1)]
18 | 20.1 | – | – | 19.6 | O=C(NCc1ccc([S+]([O-])c2cc(F)cc(F)c2)cn1)N1Cc2ccncc2C1 (single isomer, unassigned; enantiomer 2) [Example 160, N-[[5-(3,5-difluorophenyl)sulfinyl-2-pyridyl]methyl]-1,3-dihydropyrrolo[3,4-c]pyridine-2-carboxamide (enantiomer 2)]
19 | 56.3 | 91 | – | – | O=C(NCc1ccc(S(=O)(=O)c2cc(F)cc(F)c2)cn1)c1cnc2[nH]ncc2c1 [Example 1, 1H-Pyrazolo[3,4-b]pyridine-5-carboxylic acid [5-(3,5-difluoro-benzenesulfonyl)-pyridin-2-ylmethyl]-amide]
20 | 108 | – | 2000 | – | O=C(NCc1ncc(S(=O)(=O)c2ccccc2)cn1)c1cnc2[nH]ncc2c1 [Example 6, 1H-Pyrazolo[3,4-b]pyridine-5-carboxylic acid (5-benzenesulfonyl-pyrimidin-2-ylmethyl)-amide]
21 | 19.1 | 828 | – | – | O=C(NCc1ncc(S(=O)(=O)c2ccccc2)cn1)c1cnc2nccn2c1 [Example 12, Imidazo[1,2-a]pyrimidine-6-carboxylic acid (5-benzenesulfonyl-pyrimidin-2-ylmethyl)-amide]
22 | 39.4 | 16.3 | – | – | O=C(NCc1ccc(S(=O)(=O)c2cccc(C(F)(F)F)c2)cn1)c1cnc2[nH]ncc2c1 [Example 16, 1H-Pyrazolo[3,4-b]pyridine-5-carboxylic acid [5-(3-trifluoromethyl-benzenesulfonyl)-pyridin-2-ylmethyl]-amide]
23 | 3.4 | 11.4 | – | – | O=C(NCc1ccc(S(=O)(=O)c2cccc(OC(F)(F)F)c2)cn1)c1cnc2nccn2c1 [Example 20, Imidazo[1,2-a]pyrimidine-6-carboxylic acid [5-(3-trifluoromethoxy-benzenesulfonyl)-pyridin-2-ylmethyl]-amide]
24 | 572 | 930 | – | – | O=C(NCc1ccc(S(=O)(=O)C2CCNCC2)cn1)c1ccc2nccn2c1 [Example 27, Imidazo[1,2-a]pyridine-6-carboxylic acid [5-(piperidine-4-sulfonyl)-pyridin-2-ylmethyl]-amide]
25 | 7.2 | – | 1.6 | – | O=C(NCc1ccc(S(=O)(=O)c2ccc(N3CCOCC3)cc2)cn1)c1ccc2nccn2c1 [Example 30, Imidazo[1,2-a]pyridine-6-carboxylic acid (5-(4-morpholin-4-yl-benzenesulfonyl)-pyridin-2-ylmethyl]-amide]
26 | 4.6 | 28.6 | – | – | COc1cccc(S(=O)(=O)c2ccc(CNC(=O)c3cnc4nccn4c3)nc2)c1 [Example 33, Imidazo[1,2-a]pyrimidine-6-carboxylic acid [5-(3-methoxy-benzenesulfonyl)-pyridin-2-ylmethyl]-amide]
27 | 59.9 | 104 | – | – | COc1cccc(S(=O)(=O)c2ccc(CNC(=O)c3cnc4[nH]ncc4c3)nc2)c1 [Example 34, 1H-Pyrazolo[3,4-b]pyridine-5-carboxylic acid [5-(3-methoxy-benzenesulfonyl)-pyridin-2-ylmethyl]-amide]
